Measurements as given in patent US20040229930A1, “Formulations comprising a basic indolinone compound” (Pharmacia Italia S.p.A., priority 2002, published 2004).

Assay: Bulk density determination of granules / drug substance
Format: physicochemical
Text: Generally, bulk density is the weight of a unit volume of material. Bulk density is also known as “apparent density.” Bulk density is typically expressed as a weight:volume ratio, for example, kilograms per liter (Kg/L) or grams per cubic centimeter (g/cm[…]). Bulk desntiy of a material can be measured by techniques that are well known in the art, by measuring the weight and volume of the material. See the Examples section of this application for exemplary techniques for measurement of bulk density.
The tap and bulk density determinations are performed as follows:
(a) A 250 mL glass cylinder is filled with formulation granules to the 100-200 mL volume mark.
(b) The mass of the cyclinder is recorded and the bulk density is determined by calculating the ratio of the mass of the formulation granules to the volume of the formulation granules.

bulk density (salt by itself) | bulk density (maleate salt by itself) [kg/L] | Structure (SMILES)
about 0.11±0.1 |  | CCN(CC)CCNC(=O)c1c(C)[nH]c(/C=C2\C(=O)Nc3ccc(F)cc32)c1C [5-(5-fluoro-2-oxo-1,2-dihydro-indol-3-ylidenemethyl)-2,4-dimethyl-1H-pyrrole-3-carboxylic acid (2-diethylamino-ethyl)-amide]
 | 0.05 to 0.07 | Cc1[nH]c(/C=C2\C(=O)Nc3ccc(F)cc32)c(C)c1C(=O)NCC(O)CN1CCOCC1 (centres unmarked) [5-[(Z)-(5-fluoro-2-oxo-1,2-dihydro-3H-indol-3-ylidene)methyl]-N-[2-hydroxy-3-morpholin-4-ylpropyl]-2,4-dimethyl-1H-pyrrole-3-carboxamide]
